Results from patent publication US20230341404A1, “TARGETING STROMA-CANCER INTERACTIONS IN CANCER” (The Regents of the University of California, priority 2022, published 2023).
Residues, ends and D or L forms follow the SMILES beside them. *: point of attachment. Cbz = O=C(OCc1ccccc1)*

Experiments:
PDAC cells = experiment: cell viability assay (Cell Counting Kit-8) on wild-type or R/R ECM; type: cell-based, mouse and human; conditions: LG medium
Method: Cells were plated in 96-well plates coated with or without ECM at a density of 3,000 cells (MIA, 1305) or 1,500 cells (KPC or KC) per well and incubated overnight before treatment. 7rh (500 nM), ML120B (10 μM), EIPA (10.5 μM), IPI549 (600 nM), MBQ-167 (500 nM), MRT68921 (600 nM) or ML385 (10 μM), or their combinations, were added to the wells in the presence of complete medium (CM), LG medium or LQ medium for 72 h. Cell viability was determined with a Cell Counting Kit-8 assay (Glpbio). Optical density was read at 450 nm and analysed using a microplate reader with SoftMax 6.5 software (FilterMax F5, Molecular Devices). For all experiments, the medium was replaced every 24 h.

KPC or KC cells [1] = experiment: uptake of [3H] from [3H]-proline-labelled ECM; type: cell-based, mouse; conditions: LG medium, 24 h
Method: To assess the effects of Col I on metabolism, Applicant labeled wild-type and R/R fibroblasts with [^3H]-proline or [U-^13C]-glutamine for five days, during which period the cells coated the plates with Col I-containing ECM. After decellularization, KPC or KC cells and variants thereof were plated and cultured for 24 h in LG medium. The uptake of [^3H] in cells plated on wild-type ECM was dependent on macropinocytosis, as indicated by sensitivity to macropinocytosis inhibitors (EIPA (an NHE1 inhibitor), IPI549 (a PI3Kγ inhibitor) or MBQ-167 (a CDC42 and RAC inhibitor)) and to the knockdown of NHE 1 or SDC1, and enhancement by the ULK1 inhibitor MRT68921 (MRT)^11.
Wild-type or R/R fibroblasts were seeded on 6, 12 or 96-well plates. One day after plating, cells were switched into DMEM (with pyruvate) with 10% dialysed FBS supplemented with or without 500 μM [^3H]-proline or [U-^[…]]-glutamine and 100 μM vitamin C. Cells were cultured for five days with renewal of the medium every 24 h. Then fibroblasts were removed by washing in 1 ml or 500 μl or 100 μl per well PBS with 0.5% (v/v) Triton X-100 and 20 mM NH4OH. The ECM was washed five times with PBS before cancer cell plating. The following day, cancer cells were switched into the indicated medium for 24 or 72 h.

DDR1 = experiment: immunoblot of DDR1 in KPC cells plated on wild-type or R/R ECM; type: cell-based, mouse; conditions: LG medium, 24 h
Method: FIGS. 4A-4G: The Col I—DDR1—NRF2 axis controls macropinocytosis and mitochondrial biogenesis. FIG. 4A, Representative images and quantification of mitochondria and macropinocytosis in TMR-DEX-incubated parental and variant KPC cells grown on wild-type ECM. FIG. 4B, Immunoblot analysis of the indicated proteins in KPC cells grown on plastic or wild-type or R/R ECM and incubated in LG or LQ medium for 24 h. The effects of wild-type and R/R ECM on DDR1 signaling are summarized on the right. mito., mitochondria; pDDR1, phosphorylated DDR1. FIG. 4C, Representative images and quantification of mitochondria and macropinocytosis in TMR-DEX-incubated parental and NRF2^E79Q (E79Q) KPC cells plated on wild-type or R/R ECM in LG medium with or without 7rh or ML120B for 24 h. […] Statistical significance determined by two-tailed t-test. […]
The expression and function of DDR1 vary in different cancer stages and types^18-21. […] Unlike DDR1 in triple-negative breast cancer (TNBC)^20, no shedding of the DDR1 extracellular domain was detected (FIG. 12F). […]
Preparation of protein samples from cells and tissues, immunoblotting and immunoprecipitation were performed as before^10, 30. Immunoreactive bands were detected by an automatic X-ray film processor or a KwikQuant Imager.

KPC cells = experiment: intrasplenic PDAC cell implantation (liver tumours); type: in vivo, mouse; conditions: 10 mg kg^−1 EIPA intraperitoneal every other day
Method: FIGS. 14A-14J: Effect of macropinocytosis and mitochondria on Col I-controlled PDAC cell growth. FIG. 14A, Bromodeoxyuridine (BrdU) incorporation into KPC cells plated on ECM mixtures produced by R/R and WT fibroblasts (R:W). Scale bars, 10 μm. FIG. 14B, FIG. 14C, Paren. and IKKα^KD KPC (FIG. 14B) or KC (FIG. 14C) cells were plated −/+ WT or R/R ECM and incubated in LG −/+ indicated reagents. Viable cells were measured after 3 days and depicted relative to untreated plastic-plated Paren. cells. (FIG. 14C). IKKα KD efficiency is shown on the right (FIG. 14B). FIGS. D, E, Viable 1305 (FIG. 14D) or MIA PaCa-2 (FIG. 14E) cells plated as above and incubated in LG −/+ EIPA. f, Viable Paren. and E79Q KPC cells plated, treated, and presented as above. […] Total viable cells were measured as above and are presented relative to the untreated cells. FIG. 14H, Mitochondrial ATP production calculated from FIG. 6B. […] Quantification of the SR positive area is shown on the left. […] Statistical significance determined by two-tailed t-test. […]
Three-month-old Col I^WT or Col I^r/r mice were treated with or without an oral gavage of 25% CCl4 in corn oil twice a week for two weeks. […] Mice were analysed 14 days after treatment with or without 10 mg kg^−1 EIPA (Sigma) by intraperitoneal injection every other day.

KPC or KC cells [2] = experiment: luminescence ATP detection assay; type: cell-based, mouse; conditions: cells cultured on wild-type ECM, 24 h
Method: KPC or KC cells were grown on 96-well plates coated with or without the indicated ECM in the presence of 100 μl CM or LG medium with or without EIPA (10.5 μM), MBQ-167 (500 nM), MRT68921 (600 nM) or their combinations for 24 h. Then the cell number was measured. Intracellular ATP was determined with a luminescence ATP detection assay system (PerkinElmer) according to the manufacturer's protocol. Finally, luminescence was measured and normalized to cell number.

KPC or KC cells [3] = experiment: L-amino acid assay; type: cell-based, mouse; conditions: cells cultured on wild-type ECM, LG medium, 24 h
Method: KPC or KC cells were grown on six-well plates coated with or without the indicated ECM in the presence of […] LG medium with or without EIPA (10.5 μM), MRT68921 (600 nM) or their combinations for 24 h. Total amounts of free 1-amino acids (except for glycine) were measured using an L-Amino Acid Assay Kit (Colorimetric, […]) according to the manufacturer's protocol. The concentration of 1-amino acids was calculated within samples by comparing the sample optical density to the standard curve and normalized to cell number.

[4] = parental cells on wild-type ECM, 7rh 500 nM, ML120B 10 μM, ML385 10 μM, EIPA 10.5 μM, IPI549 600 nM, MBQ-167 500 nM
[5] = IKKα^KD cells versus parental cells

| SMILES | cell growth (viable cells) (PDAC cells; parental cells on R/R ECM) | cell growth (viable cells) (PDAC cells; [4]) | cell growth (viable cells) (PDAC cells; [5]) | uptake of [3H] (KPC or KC cells [1]; cells plated on R/R ECM) | uptake of [3H] (KPC or KC cells [1]; cells plated on wild-type ECM) | other results |
| --- | --- | --- | --- | --- | --- | --- |
| COc1c(Cl)cc2c([nH]c3cnccc32)c1NC(=O)c1cccnc1C [ML120B] | did not decrease the low growth | decreased growth on wild-type ECM |  |  |  | cell growth (viable cells) (PDAC cells; NRF2(E79Q)-expressing cells): resistant |
| CCn1c2ccccc2c2cc(-n3nncc3-c3ccccc3)ccc21 (racemic) [MBQ-167] | did not decrease the low growth | decreased growth on wild-type ECM | more sensitive | unaffected | sensitivity |  |
| C[C@H](NC(=O)c1c(N)nn2cccnc12)c1cc2cccc(C#Cc3cnn(C)c3)c2c(=O)n1-c1ccccc1 [IPI549] | did not decrease the low growth | decreased growth on wild-type ECM | more sensitive | unaffected | sensitivity |  |
| CC(C)C[C@@H](C=O)NC(=O)[C@H](CC(C)C)NC(=O)[C@H](CC(C)C)NC(=O)OCc1ccccc1 [MG132] (Cbz-Leu-Leu-Leu-aldehyde) |  |  |  |  |  | DDR1 expression (DDR1): rescued DDR1 expression |
| Cc1ccccc1C(=O)N1CCc2cc(-c3nc(NC(=O)Cc4ccc5c(c4)OCO5)sc3C)ccc21 [ML385] | did not decrease the low growth | decreased growth on wild-type ECM |  |  |  |  |
| CCN(c1nc(N)c(C(=O)NC(=N)N)nc1Cl)C(C)C [EIPA] | did not decrease the low growth | decreased growth on wild-type ECM | more sensitive | unaffected | sensitivity | tumour growth (KPC cells; Col I^r/r livers): had little effect; tumour growth (KPC cells; wild-type livers): inhibited tumour growth |
| CN1CCc2cc(Nc3ncc(C4CC4)c(NCCCNC(=O)C4CCC4)n3)ccc2C1 [MRT68921] |  |  |  |  | enhancement | levels of ATP (KPC or KC cells [2]): further increased; amino acid content (KPC or KC cells [3]): further increased |
